# Source: article PMC6429183, “Identification of Compounds That Inhibit Estrogen-Related Receptor Alpha Signaling Using High-Throughput Screening Assays” (Molecules, 2019)
# Several values for one entry are separate records, joined by “and”; a condition that tells them apart may be missing. Equal entries are not always repeated. Where two headings read alike, the source gives them in different places.
# Key:
# [1] = test system: ERR reporter HEK293 cells; assay: CellTiter-Fluor cell viability assay multiplexed with ERR reporter assay; assay type: cell-based; details: for ERR-HEK293 Follow-Up Viability EC50: follow-up screen; for EC50: Homo sapiens
# Experimental: (§1) ERR or PGC/ERR reporter HEK293 cells suspended in culture medium without puromycin were dispensed at 2500 cells/5 μL/well in tissue culture–treated 1536-well white assay plates (Greiner Bio-One North America, Monroe, NC, USA) using a Thermo Scientific Multidrop Combi (ThermoFisher Scientific, Inc.). […] After the cells were incubated at 37 °C with 5% CO2 for 6 h, 23 nL of compounds or control, XTC790, was transferred into the assay plates using a Wako Pintool station (Wako Automation, San Diego, CA, USA). The assay plates were incubated at 37 °C for 18 h, followed by the addition of 5 μL ONE-Glo luciferase reagent (Promega, Madison, WI, USA) using a Flying Reagent Dispenser (Aurora Discovery, Carlsbad, CA, USA). After 30 min of incubation at room temperature, the luminescence intensity of the assay plates was quantified using a ViewLux plate reader (PerkinElmer, Shelton, CT, USA). The assays were performed three times for each compound concentration. These ERR and PGC/ERR reporter assays were multiplexed with the CellTiter-Fluor Cell Viability Assay (Promega), a fluorescence-based cell viability assay, to assess compound cytotoxicity.
# The qHTS data were analyzed as described previously. […] The DMSO-only compound plates at the beginning and end of the compound plate stack were used to correct the data set by applying an in-house pattern correction algorithm. The half maximum inhibition values (IC50) for each compound and maximum response (efficacy) values were obtained by fitting the concentration-response curves of each compound to a four-parameter Hill equation [91]. […] For each reading, the activity outcome of a test compound was first categorized by the average curve rank from the triplicate runs and the reproducibility calls. The final activity outcome of each compound was based on the ERR antagonist readout activity and cell viability counter screen.
# IDH3α = assay: qRT-PCR mRNA expression of ERR downstream gene IDH3α; assay type: cell-based; details: ERR reporter cells, vs GAPDH, DMSO = 0%
# Experimental: (§2) Total RNA was isolated from treated ERR reporter cells using an RNeasy Mini Kit (Qiagen, Germantown, MD, USA), homogenized using a QIAshredder (Qiagen), and reverse transcribed with a High-Capacity RNA-to-cDNA™ Kit (ThermoFisher Scientific, Inc.) following the manufacturers’ instructions. Expression of ERRα, COX8α, IDH3α, PPARα, COX4I1, and cytochrome c genes was normalized against GAPDH. All primers were purchased from ThermoFisher Scientific, Inc. Real-time PCR assays were performed in 384-well plates on a QuantStudio 5 (Applied Biosystems, Foster City, CA, USA) with TaqMan™ Gene Expression Master Mix (ThermoFisher Scientific, Inc.). Induction values were calculated using the equation: Fold = 2^ΔΔCt, where ΔCt represents the differences in cycle threshold numbers between each of the target genes and GAPDH, and ΔΔCt represents the relative change in these differences between control and treatment groups. Experimental data are presented as a mean of triplicate determinations ± SD. Statistical comparisons were made by t-test, while the statistical significance was set at p values of <0.05 (light blue), <0.01 (medium blue), and <0.001 (dark blue).
# cytochrome c = assay: qRT-PCR mRNA expression of ERR downstream gene cytochrome c; assay type: cell-based; details: ERR reporter cells, vs GAPDH, DMSO = 0%
# Experimental: as §2
# [2] = test system: Nrf2/antioxidant response element (ARE); assay: Nrf2/ARE-HepG2 β-lactamase reporter agonist assay; assay type: cell-based; details: agonist mode, heatmap outcome
# Experimental: After the assay plates were incubated at 37 °C for 5–6 h, 23 nL of compounds dissolved in DMSO or positive controls were transferred to the assay plates via a Wako Pintool station (Wako). Except for ARE and p53, all other assays received 1 µL/well agonist (10 nM R1881 for AR; 0.5 and 5 nM β-estradiol for ERα and ERβ respectively; 300 µM CDCA for FXR; 50 nM Rosiglitazone for PPARγ; and 5 nM R5020 for PR) or assay medium using a Flying Reagent Dispenser (FRD). The assay plates were incubated for 16 h (AR, Nrf2/ARE, ERβ, FXR, p53, and PR), 17 h (PPARγ), or 18 h (ERα) at 37 °C, and 1 µL/well LiveBLAzer™ FRET-B/G CCF4-AM substrate (ThermoFisher Scientific, Inc.) detection mix was added using an FRD and the plates were incubated at room temperature for 2 h. […] Data were expressed as the ratio of 460/530 nm emission values.
# [3] = biological target: T1, ERRα with PGC-1α (PGC/ERR pathway) (Homo sapiens, UniProt P11474); assay: PGC/ERR reporter (luciferase) qHTS assay, PGC/ERR-HEK293; details: for EC50: mean ± SD, triplicate; for PGC/ERR-HEK293 Follow-Up Efficacy: follow-up screen; for PGC/ERR-HEK293 Follow-Up Efficacy / PGC/ERR-HEK293 Primary Efficacy: negative = antagonism, positive = agonism; for activity in the ERR/PGC assay: in words; for PGC/ERR-HEK293 Primary Efficacy: primary qHTS
# T1 sequence (P11474 1-423): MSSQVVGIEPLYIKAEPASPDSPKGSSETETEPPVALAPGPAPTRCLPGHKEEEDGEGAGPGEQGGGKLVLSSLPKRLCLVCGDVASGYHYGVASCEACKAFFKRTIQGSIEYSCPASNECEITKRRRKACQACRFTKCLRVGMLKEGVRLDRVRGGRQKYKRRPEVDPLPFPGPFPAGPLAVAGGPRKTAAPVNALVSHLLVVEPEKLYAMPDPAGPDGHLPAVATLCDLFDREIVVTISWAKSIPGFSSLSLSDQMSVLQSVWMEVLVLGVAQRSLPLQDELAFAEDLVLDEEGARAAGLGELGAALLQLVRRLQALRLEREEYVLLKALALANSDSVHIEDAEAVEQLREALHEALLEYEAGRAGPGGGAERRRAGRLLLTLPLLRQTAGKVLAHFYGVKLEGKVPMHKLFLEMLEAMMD
# Experimental: (§3) The ERR reporter HEK293 cells were cultured in high glucose DMEM medium (ThermoFisher Scientific, Inc., Waltham, MA, USA) supplemented with 10% fetal bovine serum (FBS; ThermoFisher Scientific, Inc.), 4 mM of L-glutamine (ThermoFisher Scientific, Inc.), 1 mM of sodium pyruvate (ThermoFisher Scientific, Inc.), 100 U/mL of penicillin and 100 mg/mL of streptomycin (ThermoFisher Scientific, Inc.). PGC/ERR reporter HEK293 cells were cultured in the same medium as the ERR reporter HEK293 cells with an additional 1 μg/mL puromycin (ThermoFisher Scientific, Inc.) as the selection marker for PGC-1α expression.
# (§4) The DMSO-only compound plates at the beginning and end of the compound plate stack were used to correct the data set by applying an in-house pattern correction algorithm [90]. The half maximum inhibition values (IC50) for each compound and maximum response (efficacy) values were obtained by fitting the concentration-response curves of each compound to a four-parameter Hill equation [91]. […] For each reading, the activity outcome of a test compound was first categorized by the average curve rank from the triplicate runs and the reproducibility calls. The final activity outcome of each compound was based on the ERR antagonist readout activity and cell viability counter screen.
# [4] = biological target: T2, estrogen-related receptor alpha (ERRα) (Homo sapiens, UniProt P11474); assay: ERR reporter (luciferase) antagonist qHTS assay, ERR-HEK293; details: for EC50: mean ± SD, triplicate; for ERR-HEK293 Follow-Up Efficacy: follow-up screen; for ERR-HEK293 Follow-Up Efficacy / ERR-HEK293 Primary Efficacy: relative to XCT790 = −100%; for ERR-HEK293 Primary Efficacy: primary qHTS, DMSO = 0%; for activity in the ERR assay: in words
# T2 sequence (P11474 1-423): T1 sequence (P11474 1-423)
# Experimental: as §3, §4
# [5] = test system: PGC/ERR reporter HEK293 cells; assay: CellTiter-Fluor cell viability assay multiplexed with PGC/ERR reporter assay; assay type: cell-based; details: for EC50: Homo sapiens
# Experimental: as §1
# The qHTS data were analyzed as described previously. Each titration point was normalized relative to the positive control compound (XCT790 = −100%) and DMSO-only wells (0%) according to the following equation: % Activity = [(Vcompound − VDMSO)/(VDMSO − Vpos)] × 100, where Vcompound denotes the compound well values, Vpos denotes the median value of the positive control wells, and VDMSO denotes the median values of the DMSO-only wells. The DMSO-only compound plates at the beginning and end of the compound plate stack were used to correct the data set by applying an in-house pattern correction algorithm. The half maximum inhibition values (IC50) for each compound and maximum response (efficacy) values were obtained by fitting the concentration-response curves of each compound to a four-parameter Hill equation [91]. Compounds were designated as Class 1–4 according to the type of concentration–response curve observed. For each reading, the activity outcome of a test compound was first categorized by the average curve rank from the triplicate runs and the reproducibility calls. The final activity outcome of each compound was based on the ERR antagonist readout activity and cell viability counter screen.
# COX4I1 = assay: qRT-PCR mRNA expression of ERR downstream gene COX4I1; assay type: cell-based; details: ERR reporter cells, vs GAPDH, DMSO = 0%
# Experimental: as §2, with “Experimental data are presented as a mean of triplicate determinations ± SD. Statistical comparisons were made by t-test, while the statistical significance was set at p values of <0.05 (light blue), <0.01 (medium blue), and <0.001 (dark blue).” left out
# COX8α = assay: qRT-PCR mRNA expression of ERR downstream gene COX8α; assay type: cell-based; details: 3 µM; ERR reporter cells; vs GAPDH, DMSO = 0%
# Experimental: as §2
# [6] = primary qHTS, viability counter screen
# [7] = PGC/ERR-HEK293 Follow-Up EC50, follow-up screen
# [8] = PGC/ERR-HEK293 Primary EC50, primary qHTS, 18 h
# [9] = ERR-HEK293 Follow-Up EC50, follow-up (confirmation) screen
# [10] = ERR-HEK293 Primary EC50, primary qHTS, 18 h, 15 concentrations
# [11] = HEK293, primary qHTS, read-out: PGC/ERR-HEK293 Primary Viability EC50 (converted)
Compound,ERR-HEK293 Follow-Up Viability EC50 [1],"ERR-HEK293 Primary Viability EC50 [1, 6]",activity in the Nrf2-ARE assay [2],"EC50 [3, 7]","EC50 [3, 8]",PGC/ERR-HEK293 Follow-Up Efficacy [3],activity in the ERR/PGC assay [3],PGC/ERR-HEK293 Primary Efficacy [3],"EC50 [4, 9]","EC50 [4, 10]",ERR-HEK293 Follow-Up Efficacy [4],ERR-HEK293 Primary Efficacy [4],"EC50 [5, 11]",activity in the ERR assay [4],also measured
C[C@@H]1CC[C@H]2[C@@H](C)C(=O)O[C@@H]3O[C@@]4(C)CC[C@@H]1[C@]32OO4 [Artemisinin],Inactive,Inactive,active agonists,14.5 ± 10.8 µM,1.78 ± 0.401 µM,−72.8 ± 22.0%,antagonism,−57.6 ± 2.03%,2.44 ± 1.22 µM,1.01 ± 0.297 µM,−83.7 ± 14.6%,−71.6 ± 5.57%,,,"Percent inhibition of mRNA gene expression, IDH3α (IDH3α; 7 µM): 30.2%; Percent inhibition of mRNA gene expression, Cytochrome C (cytochrome c; 7 µM): 36.2%; ERR-HEK293 Primary Efficacy ([4]; listed as artemisinin): −71.6%"
COc1cc([C@@H]2c3cc4c(cc3[C@@H](O[C@@H]3O[C@@H]5CO[C@@H](C)O[C@H]5[C@H](O)[C@H]3O)[C@H]3COC(=O)[C@H]23)OCO4)cc(OC)c1O [Etoposide],Inactive,,active agonists,10.7 ± 2.44 µM,2.1 ± 0.526 µM,89.3 ± 19.5%,agonist activity,62.9 ± 2.71%,8.12 ± 4.42 µM,9.24 ± 8.56 µM,−88.9 ± 6.62%,−115 ± 6.85%,56.3 µM,antagonistic activity,"EC50 ([1]; HEK293, primary qHTS, viability counter screen, read-out: ERR-HEK293 Primary Viability EC50 (converted)): 56.3 µM; PGC/ERR-HEK293 Follow-Up Viability EC50 ([5]; follow-up screen): Inactive; Percent inhibition of mRNA gene expression, IDH3α (IDH3α; 18 µM): 7.19 ± 23.5%; Percent inhibition of mRNA gene expression, Cytochrome C (cytochrome c; 18 µM): 6.55 ± 3.18%"
C=C(C)[C@H]1Cc2c(ccc3c2O[C@@H]2COc4cc(OC)c(OC)cc4[C@@H]2C3=O)O1 [Rotenone],,Inactive,,0.0618 ± 0.061 µM,0.00742 ± 0.00207 µM,−41.9 ± 8.70%,antagonism,−31.0 ± 4.14%,0.016 ± 0.00671 µM,0.0133 ± 0.00476 µM,−95.8 ± 17.8%,−92.4 ± 3.03%,1.01 µM,potent antagonists,"EC50 ([1]; HEK293, read-out: ERR-HEK293 Follow-Up Viability EC50): 0.429 µM; EC50 ([5]; HEK293, follow-up screen, read-out: PGC/ERR-HEK293 Follow-Up Viability EC50 (converted)): 2.97 µM; Percent inhibition of mRNA gene expression, IDH3α (IDH3α; 175 nM): 22.4% and 22.4 ± 3.14%; Percent inhibition of mRNA gene expression, COX4I1 (COX4I1; 175 nM): 2.34 ± 3.78%; Percent inhibition of mRNA gene expression, Cytochrome C (cytochrome c; 175 nM): 27.3% and 27.3 ± 7.33%"
Cc1nc2ccccc2n1Cc1ccc(Cl)cc1 [Chlormidazole],,,,,,,,,,,,,,,"Percent inhibition of mRNA gene expression, IDH3α (IDH3α; 5 µM): 23.8 ± 3.17%; Percent inhibition of mRNA gene expression, COX4I1 (COX4I1; 5 µM): 4.71 ± 5.09%; Percent inhibition of mRNA gene expression, Cytochrome C (cytochrome c; 5 µM): 35.8 ± 3.92%"
Acriflavine hydrochloride,,,inconclusive,,,,,,,,,,,,"Percent inhibition of mRNA gene expression, COX8α (COX8α): 30.2 ± 18.2%; Percent inhibition of mRNA gene expression, IDH3α (IDH3α; 3 µM): 74.2% and 74.2 ± 9.92%; Percent inhibition of mRNA gene expression, COX4I1 (COX4I1; 3 µM): 4.76 ± 8.24%; Percent inhibition of mRNA gene expression, Cytochrome C (cytochrome c; 3 µM): 41.8% and 41.8 ± 3.72%"
